# Data: ChEMBL document CHEMBL3091422, “Endothelial lipase inhibitors for the treatment of atherosclerosis and cardiovascular disorders” (ACS Med Chem Lett, 2013)
# Tests used:
# Endothelial lipase [1] = biological target: T1, Endothelial lipase (Mus musculus, UniProt Q9WVG5); experiment: Inhibition of mouse endothelial lipase using PLAi as substrate measured for 30 mins by cell-based fluorescence assay
# T1 sequence (Q9WVG5 whole entry): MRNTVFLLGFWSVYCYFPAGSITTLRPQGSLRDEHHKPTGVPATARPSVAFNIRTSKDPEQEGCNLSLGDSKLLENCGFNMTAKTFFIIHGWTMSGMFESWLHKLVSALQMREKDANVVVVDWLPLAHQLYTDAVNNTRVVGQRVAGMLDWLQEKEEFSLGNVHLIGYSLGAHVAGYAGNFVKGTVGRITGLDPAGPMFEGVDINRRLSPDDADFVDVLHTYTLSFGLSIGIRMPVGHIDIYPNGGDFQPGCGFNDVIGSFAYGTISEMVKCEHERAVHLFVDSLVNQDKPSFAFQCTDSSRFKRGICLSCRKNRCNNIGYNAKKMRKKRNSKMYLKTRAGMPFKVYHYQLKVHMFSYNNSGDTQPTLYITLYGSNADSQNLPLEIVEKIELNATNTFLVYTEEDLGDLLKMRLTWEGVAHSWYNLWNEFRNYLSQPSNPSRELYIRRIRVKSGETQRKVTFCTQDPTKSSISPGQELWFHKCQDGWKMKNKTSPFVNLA
# Endothelial lipase [2] = biological target: T2, Endothelial lipase (Homo sapiens, UniProt Q9Y5X9); experiment: Inhibition of human endothelial lipase using PLAi as substrate measured for 30 mins by cell-based fluorescence assay
# T2 sequence (Q9Y5X9 whole entry): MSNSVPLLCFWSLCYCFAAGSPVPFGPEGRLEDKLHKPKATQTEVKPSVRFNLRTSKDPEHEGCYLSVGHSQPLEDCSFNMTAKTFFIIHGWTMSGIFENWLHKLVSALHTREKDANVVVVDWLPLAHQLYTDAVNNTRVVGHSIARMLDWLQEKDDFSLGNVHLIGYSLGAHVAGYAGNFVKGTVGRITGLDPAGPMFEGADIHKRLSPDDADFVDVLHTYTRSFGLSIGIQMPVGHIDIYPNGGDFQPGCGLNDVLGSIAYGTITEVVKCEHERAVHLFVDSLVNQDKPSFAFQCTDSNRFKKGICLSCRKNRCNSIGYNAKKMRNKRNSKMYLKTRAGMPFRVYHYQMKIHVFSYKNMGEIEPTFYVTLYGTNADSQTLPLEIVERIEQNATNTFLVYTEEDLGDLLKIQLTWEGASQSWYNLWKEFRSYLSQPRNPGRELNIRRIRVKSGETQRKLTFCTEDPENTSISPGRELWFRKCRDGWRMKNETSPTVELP
IC50 (Endothelial lipase [1]) [nM],IC50 (Endothelial lipase [2]) [nM],Compound
4,4,Nc1cc2c3c(c1)c(C(F)(F)F)c(CCCc1ccccc1)n3CCC2
33300,33300,FC(F)(F)c1c(CCCc2ccccc2)n2c3c(cccc13)SCC2
17,14,COc1cc2c3c(c1)c(C(F)(F)F)c(CCc1ccccc1)n3CCC2
